The results in this text go back to ChEMBL document CHEMBL1938230, “6-Position optimization of tricyclic 4-quinolone-based inhibitors of glycogen synthase kinase-3β: discovery of nitrile derivatives with picomolar potency” (Bioorg Med Chem Lett, 2012).

In one data set the test system is Staphylococcus aureus. The data set can be described thus: Antibacterial activity against Staphylococcus aureus Smith. Type of data set: ADME, organism-based.
The next data set has as its system HL-60. Nature of the data set: Inhibition of human AurA/AurB/AurC in HL-60 cells lysate assessed as reduction of labeling of acyl-phosphate ATP probe at 100 nM.
Data set [1] addresses eIF-2-alpha kinase GCN2 (Homo sapiens) (UniProt Q9P2K8). Nature of the data set: Inhibition of human GCN2 domain2 in HL-60 cells lysate assessed as reduction of labeling of acyl-phosphate ATP probe at 100 nM. Type of data set: cell-free.
For data set [2], the target named is PI4KA/PI4KAP2 (Homo sapiens) (UniProt P42356+A4QPH2). The data set can be described thus: Inhibition of human PI4KA/PI4KAP2 in HL-60 cells lysate assessed as reduction of labeling of acyl-phosphate ATP probe at 100 nM. The format is cell-free.
For data set [3], the target named is Cyclin-dependent kinase 1 (Homo sapiens) (UniProt P06493). The data set can be described thus: Inhibition of human CDC2 in HL-60 cells lysate assessed as reduction of labeling of acyl-phosphate ATP probe at 100 nM. Type of data set: cell-free.
The target of data set [4] is T1, Serine/threonine-protein kinase A-Raf (Homo sapiens) (UniProt P10398).
T1 sequence (whole entry): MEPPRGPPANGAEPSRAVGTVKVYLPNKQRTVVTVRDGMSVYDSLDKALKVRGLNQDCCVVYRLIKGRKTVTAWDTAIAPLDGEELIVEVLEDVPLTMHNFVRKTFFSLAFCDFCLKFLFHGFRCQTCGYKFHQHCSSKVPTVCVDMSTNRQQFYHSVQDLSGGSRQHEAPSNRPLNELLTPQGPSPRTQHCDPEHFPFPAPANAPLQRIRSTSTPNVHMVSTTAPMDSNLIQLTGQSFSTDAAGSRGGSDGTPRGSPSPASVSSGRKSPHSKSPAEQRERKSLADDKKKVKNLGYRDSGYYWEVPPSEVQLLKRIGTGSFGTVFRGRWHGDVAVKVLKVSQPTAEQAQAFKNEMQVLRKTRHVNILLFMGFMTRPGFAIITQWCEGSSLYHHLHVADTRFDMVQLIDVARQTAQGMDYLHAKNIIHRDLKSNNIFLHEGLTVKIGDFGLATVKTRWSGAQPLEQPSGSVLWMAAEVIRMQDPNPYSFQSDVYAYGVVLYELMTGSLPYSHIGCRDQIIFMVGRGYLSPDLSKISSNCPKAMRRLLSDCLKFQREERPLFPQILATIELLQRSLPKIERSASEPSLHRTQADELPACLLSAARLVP
The data set can be described thus: Inhibition of human ARAF in HL-60 cells lysate assessed as reduction of labeling of acyl-phosphate ATP probe at 100 nM. The format is cell-free.

Data set [5] has as its target Dual specificity mitogen-activated protein kinase kinase 2 (Homo sapiens) (UniProt P36507). Nature of the data set: Inhibition of human MAP2K2 in HL-60 cells lysate assessed as reduction of labeling of acyl-phosphate ATP probe at 100 nM. The format is cell-free.
Data set [6] concerns the target T2, Eukaryotic translation initiation factor 2-alpha kinase 3 (Homo sapiens) (UniProt Q9NZJ5).
T2 sequence (whole entry): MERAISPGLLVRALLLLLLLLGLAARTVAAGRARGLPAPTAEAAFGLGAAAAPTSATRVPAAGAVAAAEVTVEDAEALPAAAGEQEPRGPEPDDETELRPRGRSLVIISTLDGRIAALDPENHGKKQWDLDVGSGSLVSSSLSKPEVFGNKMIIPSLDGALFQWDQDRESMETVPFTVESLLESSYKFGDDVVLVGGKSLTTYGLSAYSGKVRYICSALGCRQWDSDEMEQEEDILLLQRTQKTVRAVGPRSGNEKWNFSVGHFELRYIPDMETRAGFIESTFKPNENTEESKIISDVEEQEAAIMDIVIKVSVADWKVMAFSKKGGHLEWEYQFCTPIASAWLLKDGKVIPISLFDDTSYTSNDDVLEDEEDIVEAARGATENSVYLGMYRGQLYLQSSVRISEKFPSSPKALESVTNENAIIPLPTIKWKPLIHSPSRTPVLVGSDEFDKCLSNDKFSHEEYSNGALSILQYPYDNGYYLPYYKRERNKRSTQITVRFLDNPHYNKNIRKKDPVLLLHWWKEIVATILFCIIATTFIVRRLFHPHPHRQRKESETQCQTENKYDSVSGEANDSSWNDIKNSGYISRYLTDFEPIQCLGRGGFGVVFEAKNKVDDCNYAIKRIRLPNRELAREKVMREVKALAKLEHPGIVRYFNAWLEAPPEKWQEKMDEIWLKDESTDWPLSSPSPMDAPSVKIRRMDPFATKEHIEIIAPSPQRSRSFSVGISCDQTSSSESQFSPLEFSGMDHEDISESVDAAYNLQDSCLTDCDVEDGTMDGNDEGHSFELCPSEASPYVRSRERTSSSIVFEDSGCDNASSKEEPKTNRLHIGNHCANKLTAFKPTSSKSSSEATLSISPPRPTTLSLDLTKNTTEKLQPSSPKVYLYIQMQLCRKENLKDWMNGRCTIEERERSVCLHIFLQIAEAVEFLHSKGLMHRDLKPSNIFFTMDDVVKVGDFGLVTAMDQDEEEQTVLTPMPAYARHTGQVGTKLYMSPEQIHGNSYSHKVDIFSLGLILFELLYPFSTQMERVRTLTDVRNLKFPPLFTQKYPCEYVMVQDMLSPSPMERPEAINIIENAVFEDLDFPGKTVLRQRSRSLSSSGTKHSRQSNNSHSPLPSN
Nature of the data set: Inhibition of human PEK in HL-60 cells lysate assessed as reduction of labeling of acyl-phosphate ATP probe at 100 nM. Type of data set: cell-free.

In data set [7] the target is Serine/threonine-protein kinase PAK 2 (Homo sapiens) (UniProt Q13177). The data set can be described thus: Inhibition of human PAK2 in HL-60 cells lysate assessed as reduction of labeling of acyl-phosphate ATP probe at 100 nM. The format is cell-free.
The target in data set [8] is T3, Interleukin-1 receptor-associated kinase 4 (Homo sapiens) (UniProt Q9NWZ3).
T3 sequence (whole entry): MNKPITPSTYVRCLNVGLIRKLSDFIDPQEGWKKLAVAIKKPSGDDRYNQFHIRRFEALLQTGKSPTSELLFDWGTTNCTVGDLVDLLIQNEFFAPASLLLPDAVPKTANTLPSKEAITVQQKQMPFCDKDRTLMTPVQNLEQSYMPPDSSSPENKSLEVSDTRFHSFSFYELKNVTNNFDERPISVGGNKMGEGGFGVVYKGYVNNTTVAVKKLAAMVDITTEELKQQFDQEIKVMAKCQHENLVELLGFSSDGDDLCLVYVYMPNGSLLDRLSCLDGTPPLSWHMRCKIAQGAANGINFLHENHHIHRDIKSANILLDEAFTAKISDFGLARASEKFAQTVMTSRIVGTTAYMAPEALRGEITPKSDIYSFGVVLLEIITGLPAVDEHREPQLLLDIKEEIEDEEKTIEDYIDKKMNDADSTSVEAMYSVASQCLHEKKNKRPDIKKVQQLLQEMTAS
The data set can be described thus: Inhibition of human IRAK4 in HL-60 cells lysate assessed as reduction of labeling of acyl-phosphate ATP probe at 100 nM. The format is cell-free.

The target of data set [9] is Serine/threonine-protein kinase 26 (Homo sapiens) (UniProt Q9P289). The data set can be described thus: Inhibition of human MST4 in HL-60 cells lysate assessed as reduction of labeling of acyl-phosphate ATP probe at 100 nM. The format is cell-free.

In brackets after ≈: the same amount, converted by molar mass.

Chain of Cyclin-dependent kinase 1 (Homo sapiens) (P06493 whole entry, looked up): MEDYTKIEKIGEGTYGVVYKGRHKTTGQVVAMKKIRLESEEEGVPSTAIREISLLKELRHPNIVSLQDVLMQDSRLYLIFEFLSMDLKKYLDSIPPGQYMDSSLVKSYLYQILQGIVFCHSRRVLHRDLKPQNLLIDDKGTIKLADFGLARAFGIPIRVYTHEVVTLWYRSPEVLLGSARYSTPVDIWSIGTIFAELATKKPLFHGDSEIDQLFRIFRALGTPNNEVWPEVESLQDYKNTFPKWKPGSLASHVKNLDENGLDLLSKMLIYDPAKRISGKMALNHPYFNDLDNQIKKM
Chain of Dual specificity mitogen-activated protein kinase kinase 2 (Homo sapiens) (P36507 whole entry): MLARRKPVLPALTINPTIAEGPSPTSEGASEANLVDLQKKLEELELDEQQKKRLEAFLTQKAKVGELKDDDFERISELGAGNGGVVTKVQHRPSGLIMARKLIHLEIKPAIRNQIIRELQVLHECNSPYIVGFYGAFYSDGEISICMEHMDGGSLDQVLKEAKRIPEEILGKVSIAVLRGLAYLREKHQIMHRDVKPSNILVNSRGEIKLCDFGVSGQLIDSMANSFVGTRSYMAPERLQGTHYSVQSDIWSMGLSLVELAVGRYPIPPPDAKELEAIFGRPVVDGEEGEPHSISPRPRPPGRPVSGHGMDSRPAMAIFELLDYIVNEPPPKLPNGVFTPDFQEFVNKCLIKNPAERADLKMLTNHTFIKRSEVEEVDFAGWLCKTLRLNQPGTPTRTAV
Chain of eIF-2-alpha kinase GCN2 (Homo sapiens) (Q9P2K8 whole entry, the tested form may be a part): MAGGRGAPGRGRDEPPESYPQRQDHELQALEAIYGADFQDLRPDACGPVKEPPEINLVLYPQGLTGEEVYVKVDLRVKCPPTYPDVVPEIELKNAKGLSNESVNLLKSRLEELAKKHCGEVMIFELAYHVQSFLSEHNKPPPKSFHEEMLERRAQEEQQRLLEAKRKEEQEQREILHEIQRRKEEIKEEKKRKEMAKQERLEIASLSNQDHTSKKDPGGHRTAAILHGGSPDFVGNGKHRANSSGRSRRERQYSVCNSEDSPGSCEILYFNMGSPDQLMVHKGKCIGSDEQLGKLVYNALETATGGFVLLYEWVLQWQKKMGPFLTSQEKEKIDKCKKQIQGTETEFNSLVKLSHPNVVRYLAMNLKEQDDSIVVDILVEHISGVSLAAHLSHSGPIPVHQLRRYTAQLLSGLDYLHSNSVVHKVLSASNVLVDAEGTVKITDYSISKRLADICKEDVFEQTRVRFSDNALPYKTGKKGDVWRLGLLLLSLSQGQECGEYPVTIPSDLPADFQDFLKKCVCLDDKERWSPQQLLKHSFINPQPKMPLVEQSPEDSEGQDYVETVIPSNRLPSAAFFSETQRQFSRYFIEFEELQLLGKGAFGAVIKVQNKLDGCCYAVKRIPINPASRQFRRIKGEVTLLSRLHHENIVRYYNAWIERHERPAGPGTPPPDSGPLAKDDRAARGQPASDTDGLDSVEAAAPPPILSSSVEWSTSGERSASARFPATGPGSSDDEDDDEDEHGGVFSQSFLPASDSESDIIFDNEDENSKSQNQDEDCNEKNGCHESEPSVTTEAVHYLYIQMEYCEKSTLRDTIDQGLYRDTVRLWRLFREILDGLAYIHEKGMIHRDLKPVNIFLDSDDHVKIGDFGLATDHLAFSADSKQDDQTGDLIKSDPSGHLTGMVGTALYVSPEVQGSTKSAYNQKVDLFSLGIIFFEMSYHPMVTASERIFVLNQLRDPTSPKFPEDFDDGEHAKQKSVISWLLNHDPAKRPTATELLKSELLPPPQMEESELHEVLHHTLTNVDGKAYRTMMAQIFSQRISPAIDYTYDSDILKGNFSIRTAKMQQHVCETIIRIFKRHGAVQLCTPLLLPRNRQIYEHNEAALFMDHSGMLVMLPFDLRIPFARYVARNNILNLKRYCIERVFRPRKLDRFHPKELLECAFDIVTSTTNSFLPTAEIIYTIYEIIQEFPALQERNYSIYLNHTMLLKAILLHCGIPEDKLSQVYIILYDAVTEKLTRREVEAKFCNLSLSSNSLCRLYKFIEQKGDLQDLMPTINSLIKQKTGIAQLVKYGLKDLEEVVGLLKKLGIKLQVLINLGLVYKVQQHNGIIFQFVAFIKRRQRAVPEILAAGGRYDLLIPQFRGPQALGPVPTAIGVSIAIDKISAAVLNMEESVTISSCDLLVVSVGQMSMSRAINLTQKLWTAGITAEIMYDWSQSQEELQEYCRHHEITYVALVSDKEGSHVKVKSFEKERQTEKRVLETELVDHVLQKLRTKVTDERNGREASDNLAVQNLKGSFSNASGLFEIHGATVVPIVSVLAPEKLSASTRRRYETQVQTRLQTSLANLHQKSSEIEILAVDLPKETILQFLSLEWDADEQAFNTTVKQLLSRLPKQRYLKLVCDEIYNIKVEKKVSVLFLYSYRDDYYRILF
Chain of Serine/threonine-protein kinase PAK 2 (Homo sapiens) (Q13177 whole entry): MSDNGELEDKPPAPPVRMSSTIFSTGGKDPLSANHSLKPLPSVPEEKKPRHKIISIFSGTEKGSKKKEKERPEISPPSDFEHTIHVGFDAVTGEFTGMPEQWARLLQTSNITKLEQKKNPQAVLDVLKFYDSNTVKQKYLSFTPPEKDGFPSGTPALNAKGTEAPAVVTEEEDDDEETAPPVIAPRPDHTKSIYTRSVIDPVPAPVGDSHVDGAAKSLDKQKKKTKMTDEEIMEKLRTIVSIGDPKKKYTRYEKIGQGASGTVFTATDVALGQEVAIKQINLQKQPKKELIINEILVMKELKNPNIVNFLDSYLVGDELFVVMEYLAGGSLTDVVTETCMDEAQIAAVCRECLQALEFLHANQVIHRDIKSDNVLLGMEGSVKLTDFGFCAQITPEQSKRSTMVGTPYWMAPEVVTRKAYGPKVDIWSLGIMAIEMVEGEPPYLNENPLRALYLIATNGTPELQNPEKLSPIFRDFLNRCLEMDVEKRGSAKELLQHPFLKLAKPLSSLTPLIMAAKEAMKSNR
Chain of Serine/threonine-protein kinase 26 (Homo sapiens) (Q9P289 2-416 limits assumed): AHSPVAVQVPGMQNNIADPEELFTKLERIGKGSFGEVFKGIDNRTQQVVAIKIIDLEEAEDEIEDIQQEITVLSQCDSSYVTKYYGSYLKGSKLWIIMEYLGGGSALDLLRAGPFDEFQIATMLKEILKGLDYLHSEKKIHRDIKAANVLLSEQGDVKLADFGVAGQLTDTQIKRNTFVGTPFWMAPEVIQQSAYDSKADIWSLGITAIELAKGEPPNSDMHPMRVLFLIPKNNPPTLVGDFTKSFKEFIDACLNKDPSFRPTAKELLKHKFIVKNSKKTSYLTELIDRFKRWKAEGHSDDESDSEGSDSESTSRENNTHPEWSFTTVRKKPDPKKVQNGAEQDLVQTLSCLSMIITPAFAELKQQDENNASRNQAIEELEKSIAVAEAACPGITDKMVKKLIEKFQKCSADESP

As for `C[C@H]1COc2c(NCCCc3ccccn3)c(F)c(N)c3c(=O)c(C#N)cn1c23`, the MIC against Staphylococcus aureus was over 298 µM. Moreover, in the data set on HL-60, the inhibition (usually the share of the control response that was lost under treatment) at 0.1 µM is under 35%. Moreover, the inhibition in data set [1], in data set [2], in data set [3], in [4], in [5] and in data set [6] was under 35% throughout. The inhibition in data set [7], in data set [8] and in data set [9] was under 35% each time.
In turn, `C[C@H]1COc2c(NCCCc3ccccn3)c(F)c(N)c3c(=O)c(C(=O)O)cn1c23` returned an MIC in the data set on Staphylococcus aureus of 2 µM (≈ 0.825 µg/mL). Moreover, the inhibition at 0.1 µM with HL-60 was under 35%. The inhibition in data set [1], in data set [2], in data set [3], in data set [4], in data set [5] and in data set [6] was under 35% in each case. The inhibition in data set [7], in data set [8] and in data set [9] was under 35% in each case.
The molecule `C[C@H]1COc2c(NCCCn3cccn3)c(F)c(N)c3c(=O)c(C(=O)O)cn1c23` showed an MIC in the data set with Staphylococcus aureus of 2 µM (≈ 0.803 µg/mL). Also, the inhibition at 0.1 µM in the data set with HL-60 was under 35%. Also, the inhibition in data set [1], in data set [2], in data set [3], in data set [4], in data set [5] and in data set [6] was under 35% in each case. Also, the inhibition in data set [7], in data set [8] and in data set [9] was under 35% each time.
In the data set with Staphylococcus aureus, `C[C@H]1COc2c(NCCCn3cccn3)c(F)c(N)c3c(=O)c(C#N)cn1c23` returned an MIC of over 306 µM. Besides, the inhibition at 0.1 µM with HL-60 was under 35%. The inhibition in data set [1], in [2], in [3], in [4], in data set [5] and in data set [6] was under 35% each time. For the same molecule, the inhibition in [7], in data set [8] and in data set [9] was under 35% throughout.
